Reference: ChEMBL document CHEMBL1127943, “Morpholine-based substance P antagonists: assessment of the 3-point binding model” (Bioorg Med Chem Lett, 1994)

Molecular target: Substance-P receptor (Homo sapiens, UniProt P25103)
Assay: Binding affinity towards human Tachykinin receptor 1 by the displacement of [125I]- Substance P in CHO Cells

Chain of Substance-P receptor (P25103 whole entry): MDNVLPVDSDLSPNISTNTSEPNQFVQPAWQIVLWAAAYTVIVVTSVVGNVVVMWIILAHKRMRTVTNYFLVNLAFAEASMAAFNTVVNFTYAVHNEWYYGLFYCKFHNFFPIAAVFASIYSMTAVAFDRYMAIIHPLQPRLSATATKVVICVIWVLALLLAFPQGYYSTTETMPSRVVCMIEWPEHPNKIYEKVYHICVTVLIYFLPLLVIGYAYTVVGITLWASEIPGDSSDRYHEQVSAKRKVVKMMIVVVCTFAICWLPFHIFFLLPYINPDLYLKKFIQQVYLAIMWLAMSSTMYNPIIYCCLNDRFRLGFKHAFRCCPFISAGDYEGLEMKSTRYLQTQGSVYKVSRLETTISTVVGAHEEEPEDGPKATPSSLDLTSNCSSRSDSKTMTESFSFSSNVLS

Compound	IC50 [nM]
FC(F)(F)c1cc(CC[C@@H]2OCCN[C@@H]2c2ccccc2)cc(C(F)(F)F)c1	1530
O=C1CO[C@@H](/C=C/c2cc(C(F)(F)F)cc(C(F)(F)F)c2)[C@@H](c2ccccc2)N1	2530
FC(F)(F)c1cc(C2OC2[C@@H]2OCCN[C@@H]2c2ccccc2)cc(C(F)(F)F)c1 (some centres undefined)	87
FC(F)(F)c1cc(CC[C@H]2OCCN[C@@H]2c2ccccc2)cc(C(F)(F)F)c1	1130
